Laboratory results as given in patent US20190100534A1, “Cephem Compounds with Latent Reactive Groups” (Gladius Pharmaceuticals, Inc., priority 2017, published 2019).

Key:
CF (RR -1) = assay: MIC determination; assay type: cell-based, Citrobacter freundii; settings: CAMH broth, 20 μM Apo-Transferrin, 37° C., 18 hours
Procedure: (§1) Sterile technique was used throughout these experiments. Suspensions of organisms were removed from storage (−80° C.) and partially thawed. Partially thawed organisms (1 μL) were inoculated into 3 mL sterile LB Broth in a sterile culture tube and capped, then cultured at 37° C. with shaking for 4-5 hours until the optical density at 600 nm (OD600) was greater than 0.1 on a single beam spectrophotometer.
(§2) The concentration of organisms was adjusted to 0.08-0.1 OD600 (0.5 McFarland units) by dilution with sterile cation-adjusted Meuller-Hinton (CAMH) broth. The suspensions were used within 30 minutes of preparation.
(§3) A stock solution was made of each test compound by measuring 6.4 mg of the compound on an analytical balance and dissolving it in DMSO (1 mL) to get a transparent solution. The solutions were stored at −20° C. and thawed prior to use.
(§4) Sterile CAMH broth (200 μL) containing 20 μM Apo-Transferrin was pipetted into the first row of 8 columns of a sterile, round-bottomed, transparent, 96-well microplate using an 8-channel pipette equipped with sterile tips. One hundred μL was pipetted into the wells of the remaining 11 rows.
(§5) With an 8-channel pipette equipped with sterile tips, 100 μL of the first row solution was transferred to the second row and mixed. The process was repeated for the second to third rows and continued through row 11. One hundred μL from row 11 was removed and discarded so that all 12 rows contained 100 μL. Row 12 contained no compound and rows 1-11 contained 64, 32, 16, 8, 4, 2, 1, 0.5, 0.25, 0.125, […] of a given compound.
(§6) Inoculant suspensions (0.5 μL) were added to the 12 wells of each column. The plates were then covered and incubated at 37° C. overnight for 18 hours.
(§7) For each organism the MIC was determined by identifying the transparent well with the lowest test compound concentration.

EC(ATCC NDM-1) = assay: MIC determination; assay type: cell-based, Escherichia coli; settings: Escherichia coli, CAMH broth, 20 μM Apo-Transferrin, 37° C., 18 hours, read-out: Minimum Inhibitory Concentrations, EC(ATCC NDM-1)
Procedure: as §1, §2, §3, §4, §5, §6, §7

EC(KB2 CTX-M-14) = assay: MIC determination; assay type: cell-based, Escherichia coli; settings: Escherichia coli, 18 h, read-out: Minimum Inhibitory Concentrations, EC(KB2 CTX-M-14)
Procedure: as §1, §2, §3, §4, §5, §6, §7

EC(KB2 CTX-M-15) = assay: MIC determination; assay type: cell-based, Escherichia coli; settings: Escherichia coli, CAMH broth, 20 μM Apo-Transferrin, 37° C., 18 hours, read-out: Minimum Inhibitory Concentrations, EC(KB2 CTX-M-15)
Procedure: as §1, §2, §3, §4, §5, §6, §7

EC (URMC-2) = assay: MIC determination; assay type: cell-based, Escherichia coli; settings: Escherichia coli, CAMH broth, 20 μM Apo-Transferrin, 37° C., 18 hours, read-out: Minimum Inhibitory Concentrations, EC (URMC-2)
Procedure: as §1, §2, §3, §4, §5, §6, §7

EC (RR -1) = assay: MIC determination; assay type: cell-based, Escherichia coli; settings: CAMH broth, 20 μM Apo-Transferrin, 37° C., 18 hours
Procedure: as §1, §2, §3, §4, §5, §6, §7

EC(JMI OXA-48) = assay: MIC determination; assay type: cell-based, Escherichia coli; settings: Escherichia coli, CAMH broth, 20 μM Apo-Transferrin, 37° C., 18 hours, read-out: Minimum Inhibitory Concentrations, EC(JMI OXA-48)
Procedure: as §1, §2, §3, §4, §5, §6, §7

EC (RR -2) = assay: MIC determination; assay type: cell-based, Escherichia coli; settings: CAMH broth, 20 μM Apo-Transferrin, 37° C., 18 hours
Procedure: as §1, §2, §3, §4, §5, §6, §7

EC(KB1 CTX-M-15) = assay: MIC determination; assay type: cell-based, Escherichia coli; settings: Escherichia coli, CAMH broth, 20 μM Apo-Transferrin, 37° C., 18 hours, read-out: Minimum Inhibitory Concentrations, EC(KB1 CTX-M-15)
Procedure: as §1, §2, §3, §4, §5, §6, §7

EC (URMC-3) = assay: MIC determination; assay type: cell-based, Escherichia coli; settings: Escherichia coli, CAMH broth, 20 μM Apo-Transferrin, 37° C., 18 hours, read-out: Minimum Inhibitory Concentrations, EC (URMC-3)
Procedure: as §1, §2, §3, §4, §5, §6, §7

EC (URMC-1) = assay: MIC determination; assay type: cell-based, Escherichia coli; settings: Escherichia coli, CAMH broth, 20 μM Apo-Transferrin, 37° C., 18 hours, read-out: Minimum Inhibitory Concentrations, EC (URMC-1)
Procedure: as §1, §2, §3, §4, §5, §6, §7

PM (RR -1) = assay: MIC determination; assay type: cell-based, Proteus mirabilis; settings: CAMH broth, 20 μM Apo-Transferrin, 37° C., 18 hours
Procedure: as §1, §2, §3, §4, §5, §6, §7

ENC (ATCC NDM-1) = assay: MIC determination; assay type: cell-based, Enterobacter cloacae; settings: CAMH broth, 20 μM Apo-Transferrin, 37° C., 18 hours
Procedure: as §1, §2, §3, §4, §5, §6, §7

ENA (URMC-2) = assay: MIC determination; assay type: cell-based, Enterobacter aerogenes; settings: Klebsiella aerogenes, CAMH broth, 20 μM Apo-Transferrin, 37° C., 18 hours, read-out: Minimum Inhibitory Concentrations, ENA (URMC-2)
Procedure: as §1, §2, §3, §4, §5, §6, §7

ENA (URMC-1) = assay: MIC determination; assay type: cell-based, Enterobacter aerogenes; settings: Klebsiella aerogenes, CAMH broth, 20 μM Apo-Transferrin, 37° C., 18 hours, read-out: Minimum Inhibitory Concentrations, ENA (URMC-1)
Procedure: as §1, §2, §3, §4, §5, §6, §7

various enteric bacteria = assay: MIC determination, summary in text; assay type: cell-based; settings: review of Tables 3-1 to 3-6
Procedure: as §1, §2, §3, §4
To each well of the first row was pipetted 2.0 μL of the 6.4 mg/mL stock test compound stock solution to give 1:100 dilutions and a final concentration of 64 μg/mL and mixed.
as §5, §6, §7

KP(ATCC SHV-18) = assay: MIC determination; assay type: cell-based, Klebsiella pneumoniae; settings: CAMH broth, 20 μM Apo-Transferrin, 37° C., 18 hours
Summary of the method: (§8)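 Growth inhibition was judged by well clarity after 18 h at 37 °C in transferrin-supplemented (20 μM apo form) CAMH. Standardized suspensions (0.08-0.1 OD600) were added within 30 min of preparation.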

EC(KB1 CTX-M-14) = assay: MIC determination; assay type: cell-based, Escherichia coli; settings: Escherichia coli, 18 h, read-out: Minimum Inhibitory Concentrations, EC(KB1 CTX-M-14)
Procedure: as §1, §2, §3, §4, §5, §6, §7

[1] = system: ENC (Enterobacter cloacae); assay: MIC determination; assay type: cell-based; settings: CAMH broth, 20 μM Apo-Transferrin, 37° C., 18 hours
Summary of the method: as §8

[2] = system: various Pseudomonas strains; assay: MIC determination, summary in text; assay type: cell-based, Pseudomonas aeruginosa; settings: review of Tables 1-1 and 1-2
Procedure: as §1, §2, §3, §4, §5, §6, §7

SMILES | Mimimum Inhibitory Concentrations, CF (RR -1) (CF (RR -1)) | MIC (EC(ATCC NDM-1)) | MIC (EC(KB2 CTX-M-14)) | MIC (EC(KB2 CTX-M-15)) | MIC (EC (URMC-2)) | Mimimum Inhibitory Concentrations, EC (RR -1) (EC (RR -1)) | MIC (EC(JMI OXA-48)) | Mimimum Inhibitory Concentrations, EC (RR -2) (EC (RR -2)) | MIC (EC(KB1 CTX-M-15)) | MIC (EC (URMC-3)) | MIC (EC (URMC-1)) | Mimimum Inhibitory Concentrations, PM (RR -1) (PM (RR -1)) | Mimimum Inhibitory Concentrations, ENC (ATCC NDM-1) (ENC (ATCC NDM-1)) | MIC (ENA (URMC-2)) | MIC (ENA (URMC-1)) | MICs for various enteric bacteria, in words (various enteric bacteria) | Minimum Inhibitory Concentrations, KP(ATCC SHV-18) (KP(ATCC SHV-18)) | MIC (EC(KB1 CTX-M-14)) | Mimimum Inhibitory Concentrations, ENC [1] | MICs for various Pseudomonas strains, in words [2]
CC(C)(O/N=C(\C(=O)N[C@@H]1C(=O)N2C(C(=O)O)=C(C=Cc3ccc(C[N+]4(C)CCc5c(Cl)c(O)c(O)c(Cl)c5C4)cc3)CS[C@H]12)c1csc(N)n1)C(=O)O (mixture of isomers) [Compound 429, 2-(4-((E/Z)-2-((6R,7R)-7-((Z)-2-(2-aminothiazol-4-yl)-2-(((2-carboxypropan-2-yl)oxy)imino)acetamido)-2-carboxy-8-oxo-5-thia-1-azabicyclo[4.2.0]oct-2-en-3-yl)vinyl)benzyl)-5,8 dichloro-6,7-dihydroxy-2-methyl-1,2,3,4-tetrahydroisoquinolin-2-ium] | ≤0.06 microgram/mL | > 64 µg/mL | 1 µg/mL | 8 µg/mL | 0.13 µg/mL | ≤0.06 microgram/mL | 2 µg/mL | ≤0.06 microgram/mL | 8 µg/mL | 0.5 µg/mL | 0.5 µg/mL | ≤0.06 microgram/mL | >64 microgram/mL | 1 µg/mL | 2 µg/mL |  |  |  |  | 
CC(C)(O/N=C(\C(=O)N[C@@H]1C(=O)N2C(C(=O)O)=C(C=Cc3ccc(C[N+]4(C)Cc5cc(O)c(O)c(Cl)c5C4)cc3)CS[C@H]12)c1csc(N)n1)C(=O)O (mixture of isomers) [Compound 432, 2-(4-((E/Z)-2-((6R,7R)-7-((Z)-2-(2-aminothiazol-4-yl)-2-(((2-carboxypropan-2-yl)oxy)imino)acetamido)-2-carboxy-8-oxo-5-thia-1-azabicyclo[4.2.0]oct-2-en-3-yl)vinyl)benzyl)-4-chloro-5,6-dihydroxy-2-methylisoindolin-2-ium] | 0.5 microgram/mL | > 64 µg/mL |  | 1 µg/mL | ≤ 0.06 µg/mL | ≤0.06 microgram/mL | 0.5 µg/mL | ≤0.06 microgram/mL | 1 µg/mL | 0.13 µg/mL | 0.5 µg/mL | ≤0.06 microgram/mL | >64 microgram/mL | 0.25 µg/mL | 1 µg/mL | low microgram/mL MICs |  |  |  | 
C#CC[N+]1(Cc2ccc(C=CC3=C(C(=O)O)N4C(=O)[C@@H](NC(=O)/C(=N\OC(C)(C)C(=O)O)c5csc(N)n5)[C@H]4SC3)cc2)CCc2cc(O)c(O)cc2C1 (mixture of isomers) [Compound 446, 2-(4-((E/Z)-2-((6R,7R)-7-((Z)-2-(2-aminothiazol-4-yl)-2-(((2-carboxypropan-2-yl)oxy)imino)acetamido)-2-carboxy-8-oxo-5-thia-1-azabicyclo[4.2.0]oct-2-en-3-yl)vinyl)benzyl)-6,7-dihydroxy-2-(prop-2-yn-1-yl)-1,2,3,4-tetrahydroisoquinolin-2-ium] |  | > 64 µg/mL | 8 µg/mL | > 64 µg/mL |  |  | 16 µg/mL |  | 64 µg/mL |  |  |  | >64 microgram/mL |  |  |  | 1 microgram/mL | 2 µg/mL | 4 microgram/mL | 
CC(C)(O/N=C(\C(=O)N[C@@H]1C(=O)N2C(C(=O)O)=C(C=Cc3ccc(C[N+]4(C)CCc5ccc(O)c(O)c5C4)cc3)CS[C@H]12)c1csc(N)n1)C(=O)O (mixture of isomers) [Compound 442, 2-(4-((E/Z)-2-((6R,7R)-7-((Z)-2-(2-aminothiazol-4-yl)-2-(((2-carboxypropan-2-yl)oxy)imino)acetamido)-2-carboxy-8-oxo-5-thia-1-azabicyclo[4.2.0]oct-2-en-3 yl)vinyl)benzyl)-7,8-dihydroxy-2-methyl-1,2,3,4-tetrahydroisoquinolin-2-ium] | 0.25 microgram/mL | > 64 µg/mL |  | 32 µg/mL | 0.13 µg/mL | 0.25 microgram/mL | 4 µg/mL | 0.13 microgram/mL | 32 µg/mL | 0.13 µg/mL | 0.25 µg/mL | ≤0.06 microgram/mL | >64 microgram/mL | 1 µg/mL | 0.5 µg/mL |  | 0.5 microgram/mL | 1 µg/mL | 8 microgram/mL | 
CC(C)(O/N=C(\C(=O)N[C@@H]1C(=O)N2C(C(=O)O)=C(C=Cc3ccc(C[N+]4(C)Cc5c(Cl)c(O)c(O)c(Cl)c5C4)cc3)CS[C@H]12)c1csc(N)n1)C(=O)O (mixture of isomers) [Compound 431, 2-(4-((E/Z)-2-((6R,7R)-7-((Z)-2-(2-aminothiazol-4-yl)-2-(((2-carboxypropan-2-yl)oxy)imino)acetamido)-2-carboxy-8-oxo-5-thia-1-azabicyclo[4.2.0]oct-2-en-3-yl)vinyl)benzyl)-4,7-dichloro-5,6-dihydroxy-2-methylisoindolin-2-ium] | 1 microgram/mL | > 64 µg/mL |  | 2 µg/mL | ≤ 0.06 µg/mL | ≤0.06 microgram/mL | 0.5 µg/mL | ≤0.06 microgram/mL | 2 µg/mL | 0.25 µg/mL | 0.25 µg/mL | ≤0.06 microgram/mL | >64 microgram/mL | 0.5 µg/mL | 0.5 µg/mL | low microgram/mL MICs |  |  |  | low microgram/mL MICs
